Laboratory results: PubChem BioAssay (NCI)
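The compound was tested at five concentrations on cells cultured in 96-well plates, with a 48-hour exposure period. The concentration for 50% growth inhibition is given as GI50. TGI: total growth inhibition.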

Legend:
Experiment in all cases: NCI anticancer screen, dose series, 48 h
PC-3 prostate = system: PC-3 prostate
SK-OV-3 ovarian = system: SK-OV-3 ovarian
OVCAR-3 ovarian = system: OVCAR-3 ovarian
MOLT-4 leukemia = system: MOLT-4 leukemia
SF-539 CNS = system: SF-539 CNS
DU-145 prostate = system: DU-145 prostate
OVCAR-8 ovarian = system: OVCAR-8 ovarian
HCC-2998 colon = system: HCC-2998 colon
OVCAR-5 ovarian = system: OVCAR-5 ovarian
IGROV1 ovarian = system: IGROV1 ovarian
HL-60(TB) leukemia = system: HL-60(TB) leukemia
MALME-3M melanoma = system: MALME-3M melanoma
HOP-62 NSCLC = system: HOP-62 NSCLC
HCT-116 colon = system: HCT-116 colon
NCI/ADR-RES ovarian = system: NCI/ADR-RES ovarian
SK-MEL-28 melanoma = system: SK-MEL-28 melanoma
SF-268 CNS = system: SF-268 CNS
T-47D breast = system: T-47D breast
UO-31 renal = system: UO-31 renal
UACC-257 melanoma = system: UACC-257 melanoma
SK-MEL-5 melanoma = system: SK-MEL-5 melanoma
CCRF-CEM leukemia = system: CCRF-CEM leukemia
A549 NSCLC = system: A549 NSCLC
ACHN renal = system: ACHN renal
CAKI-1 renal = system: CAKI-1 renal
LOX IMVI melanoma = system: LOX IMVI melanoma
SR leukemia = system: SR leukemia
SNB-75 CNS = system: SNB-75 CNS
EKVX NSCLC = system: EKVX NSCLC
U251 CNS = system: U251 CNS
MCF7 breast = system: MCF7 breast
HOP-92 NSCLC = system: HOP-92 NSCLC
SK-MEL-2 melanoma = system: SK-MEL-2 melanoma
MDA-MB-231 breast = system: MDA-MB-231 breast
NCI-H522 lung = system: NCI-H522 lung
BT-549 breast = system: BT-549 breast
A498 renal = system: A498 renal
RXF 393 renal = system: RXF 393 renal
MDA-MB-468 breast = system: MDA-MB-468 breast
TK-10 renal = system: TK-10 renal
SNB-19 CNS = system: SNB-19 CNS
HCT-15 colon = system: HCT-15 colon
KM12 colon = system: KM12 colon
MDA-MB-435 = system: MDA-MB-435
COLO 205 colon = system: COLO 205 colon
HT29 colon = system: HT29 colon
SW-620 colon = system: SW-620 colon
UACC-62 melanoma = system: UACC-62 melanoma
NCI-H23 lung = system: NCI-H23 lung
SN12C renal = system: SN12C renal
RPMI-8226 leukemia = system: RPMI-8226 leukemia
NCI-H226 lung = system: NCI-H226 lung
HS 578T breast = system: HS 578T breast
M14 melanoma = system: M14 melanoma
K-562 leukemia = system: K-562 leukemia
SF-295 CNS = system: SF-295 CNS
NCI-H460 lung = system: NCI-H460 lung
OVCAR-4 ovarian = system: OVCAR-4 ovarian
786-0 renal = system: 786-0 renal

## O=C(Nc1ccc(Cl)c(C(F)(F)F)c1)N1CCN(c2cc(-c3cn(-c4ccccc4)nc3-c3cccc(O)c3)ccn2)CC1
PC-3 prostate
  GI50: 0.967 µM
  TGI: 17 µM
SK-OV-3 ovarian
  GI50: 6.43 µM
  TGI: > 22 µM
OVCAR-3 ovarian
  GI50: 1.76 µM
  TGI: 11.5 µM
MOLT-4 leukemia
  GI50: 0.93 µM
  TGI: 7.58 µM
SF-539 CNS
  GI50: 4.21 µM
  TGI: > 22 µM
DU-145 prostate
  GI50: 7.15 µM
  TGI: > 22 µM
OVCAR-8 ovarian
  GI50: 4.72 µM
  TGI: > 22 µM
HCC-2998 colon
  GI50: 6.1 µM
  TGI: > 22 µM
OVCAR-5 ovarian
  GI50: 4.13 µM
  TGI: 10.5 µM
IGROV1 ovarian
  GI50: 5.11 µM
  TGI: > 22 µM
HL-60(TB) leukemia
  GI50: 2.34 µM
  TGI: 8.58 µM
MALME-3M melanoma
  GI50: 3.3 µM
  TGI: 8.95 µM
HOP-62 NSCLC
  GI50: 6.28 µM
  TGI: > 22 µM
HCT-116 colon
  GI50: 1.86 µM
  TGI: > 22 µM
NCI/ADR-RES ovarian
  GI50: 2.91 µM
  TGI: 11.9 µM
SK-MEL-28 melanoma
  GI50: 3.41 µM
  TGI: 10.3 µM
SF-268 CNS
  GI50: 3.3 µM
  TGI: > 22 µM
T-47D breast
  GI50: 1.13 µM
  TGI: 14.8 µM
UO-31 renal
  GI50: 3 µM
  TGI: > 22 µM
UACC-257 melanoma
  GI50: 4.77 µM
  TGI: 14.3 µM
SK-MEL-5 melanoma
  GI50: 2.58 µM
  TGI: 5.45 µM
CCRF-CEM leukemia
  GI50: 1.59 µM
  TGI: 9.71 µM
A549 NSCLC
  GI50: 4.34 µM
  TGI: > 22 µM
ACHN renal
  GI50: 3 µM
  TGI: 17 µM
CAKI-1 renal
  GI50: 4.18 µM
  TGI: 19.4 µM
LOX IMVI melanoma
  GI50: 2.99 µM
  TGI: 6.52 µM
SR leukemia
  GI50: 3.07 µM
  TGI: > 22 µM
SNB-75 CNS
  GI50: 0.634 µM
  TGI: 11.1 µM
EKVX NSCLC
  GI50: 2.57 µM
  TGI: 19.6 µM
U251 CNS
  GI50: 4.23 µM
  TGI: > 22 µM
MCF7 breast
  GI50: 1.8 µM
  TGI: 10.1 µM
HOP-92 NSCLC
  GI50: 2.59 µM
  TGI: 15.9 µM
SK-MEL-2 melanoma
  GI50: 3.54 µM
  TGI: 7.56 µM
MDA-MB-231 breast
  GI50: 3.07 µM
  TGI: 7.57 µM
NCI-H522 lung
  GI50: 2.77 µM
  TGI: 9.26 µM
BT-549 breast
  GI50: 3.33 µM
  TGI: 7.99 µM
A498 renal
  GI50: 4.72 µM
  TGI: 21 µM
RXF 393 renal
  GI50: 2.42 µM
  TGI: 9.79 µM
MDA-MB-468 breast
  GI50: 1.03 µM
  TGI: 7.22 µM
TK-10 renal
  GI50: 5.92 µM
  TGI: > 22 µM
SNB-19 CNS
  GI50: 4.06 µM
  TGI: > 22 µM
HCT-15 colon
  GI50: 2.84 µM
  TGI: > 22 µM
KM12 colon
  GI50: 3.34 µM
  TGI: 15.2 µM
MDA-MB-435
  GI50: 2.29 µM
  TGI: 6.33 µM
COLO 205 colon
  GI50: 3.01 µM
  TGI: 9.39 µM
HT29 colon
  GI50: 4.1 µM
  TGI: > 22 µM
SW-620 colon
  GI50: 4.78 µM
  TGI: > 22 µM
UACC-62 melanoma
  GI50: 2.68 µM
  TGI: 5.77 µM
NCI-H23 lung
  GI50: 3.69 µM
  TGI: 14.9 µM
SN12C renal
  GI50: 3.21 µM
  TGI: > 22 µM
RPMI-8226 leukemia
  GI50: 1.21 µM
  TGI: 11.8 µM
NCI-H226 lung
  GI50: 3.22 µM
  TGI: 15.8 µM
HS 578T breast
  GI50: 3.39 µM
  TGI: 15.8 µM
M14 melanoma
  GI50: 3.03 µM
  TGI: 12.5 µM
K-562 leukemia
  GI50: 2.13 µM
  TGI: > 22 µM
SF-295 CNS
  GI50: 1.5 µM
  TGI: 7.25 µM
NCI-H460 lung
  GI50: 2.47 µM
  TGI: > 22 µM
OVCAR-4 ovarian
  GI50: 2.02 µM
  TGI: > 22 µM
786-0 renal
  GI50: 4.02 µM
  TGI: > 22 µM
